# Laboratory results as given in US8455616B2, “Nuclear translocation peptide” (National Center for Global Health and Medicine, priority 2007, dated 2013).
# Ends that are not written are not given here.
# Legend:
# [1] = test system: HeLa cells; experiment: Cytotoxicity test (damage to intracellular DNA, anti-γ-H2AX staining); format: cell-based, human; details: HeLa cells incubated 2 days with peptide, fragmented double-stranded DNA stained with anti-γ-H2AX antibody, FIG. 8
# Experimental: Testing of the peptide of the present invention for damage to intracellular DNA was performed in the following manner. • (Day 1) HeLa cells were seeded onto a dish at a concentration of 5×10^4 cells/dish, and cultured in 10% FCS/DMEM medium (2 mL). • (Day 2) Recombinant Vpr (protein derived from Vpr), C45D18 (Peptide 9), and LR20 (Peptide 1) were added, and the cells were incubated for 2 days. • (Day 4) The following sequence of treatments was performed on the cells: The dish was washed with PBS→the cells were fixed with 4% paraformaldehyde→after incubation for 20 min on ice, the cells were washed with PBS→200 μL of 1% Triton X-100/2M HCl solution was added, and the cells were incubated at room temperature for 30 min→blocking with 200 μL of 1% BSA was performed at room temperature for 1 h→anti-γ-H2AX antibody solution was added, and the fragmented double-stranded DNA was stained (37° C. for 30 min)→cy3-anti-mouse IgG solution was added, and the cells were incubated at room temperature for 30 min→the nuclei were stained with DAPI/PBST (3 min)→the cells were mounted on glass slides.
# In FIG. 8 the stained parts indicate fragmented DNA.
# [2] = cited from earlier work
# [3] = test system: HeLa cells; experiment: Cellular and nuclear translocation capability of magnetic particles in HeLa cells; format: cell-based, human; details: peptide-CMDM conjugates, iron 0.7 mg/mL, thymidine-arrested HeLa cells, 18 h exposure, T2 relaxation time by NMR, FIG. 1
# Excerpt: With respect to the amount of cellular and nuclear translocation of the aforementioned peptide-magnetic nanoparticle conjugate, the translocation capability of the peptide of the present invention can be compared with that of a previous PTD by adding the conjugate to cultured cells, separating and recovering the cytoplasm and nuclei after letting the culture stand for a set period of time, measuring the T2 relaxation time by NMR, and measuring the amount of magnetic nanoparticles taken up by the cells.
# After 18 h of exposure, the cells were washed with PBS and recovered, and centrifugal separation (2000 rpm for 5 min) was performed to precipitate the cells into pellets. After the cells were resuspended by adding 700 mL of PBS, they were lysed using a Dounce homogenizer and centrifuged (2000 rpm for 5 min) into pellets. […] Then the T2 relaxation time of each resulting fraction was measured by NMR. Concurrently, the protein concentration of each fraction was measured by BSA protein assay.
# Because a fixed relation is established between T2 relaxation time and magnetic substance concentration, the magnetic substance concentration can be calculated by assuming that the T2 relaxation of the sample is the same before and after the test. The calculated concentration was corrected further using the protein concentration.
molecule,measurement,setting,value
"RIFIHFRIGC [Peptide 4, R I F I H F R I G C]",DNA damage (cytotoxicity),[1],no damage to DNA was seen
DTWAGVEAIIRILQQLLFIHFRIGCRH [Peptide 9],translocation capability relative to a protein originating in Vpr,"[2]; Taguchi et al., Biochem. Biophys. Res. Comm., 320, 18 (2004)",stronger translocation capability than a protein originating in Vpr
same,translocation capability of conjugates with enzymatic proteins relative to the Tat peptide,"[2]; conjugates of C45D18 and enzymatic proteins, into a cell and into a nucleus, Taguchi et al. (2004)",greater than that of the Tat peptide
R I L Q Q L L F I H F R I G C [Peptide 3],cellular and nuclear translocation capability,[3],best cellular and nuclear translocation capability
"Peptide 12: PTD peptide discovered during research to enhance the function of the Tat peptide (Mukai et al.), synthesized with additional GGC (THRLPRRRRRR; YM-3 peptide)",cellular translocation capability relative to the Tat peptide,"[2]; Mukai et al., Biol. Pharm. Bull. 29(8), 1570 (2006)",approximately three times higher than that of the Tat peptide
"CC[C@H](C)[C@H](NC(=O)[C@H](CCCNC(=N)N)NC(=O)[C@H](CO)NC(=O)[C@H](Cc1c[nH]cn1)NC(=O)[C@H](CCCNC(=N)N)NC(=O)[C@H](CS)NC(=O)CNC(=O)[C@@H](NC(=O)[C@H](CCCNC(=N)N)NC(=O)[C@H](Cc1ccccc1)NC(=O)[C@H](Cc1c[nH]cn1)NC(=O)[C@@H](NC(=O)[C@H](Cc1ccccc1)NC(=O)[C@H](CC(C)C)NC(=O)[C@H](CC(C)C)NC(=O)[C@H](CCC(N)=O)NC(=O)[C@H](CCC(N)=O)NC(=O)[C@H](CC(C)C)NC(=O)[C@@H](NC(=O)[C@@H](N)CCCNC(=N)N)[C@@H](C)CC)[C@@H](C)CC)[C@@H](C)CC)C(=O)O [Peptide 1, RILQQLLFIHFRIGCRHSRI]",DNA damage (cytotoxicity),[1],extent of DNA damage is decreased
